Laboratory results: ChEMBL document CHEMBL1201862, “PubChem BioAssay data set” (2004)
Activity calls are given as the source filed them.

Legend:
[1] = P. falciparum Dd2 growth inhibitors, dose response, SYBR Green, cherry-picked samples (AID 1159567); format: functional, cell-based
[2] = HepG2 cell cytotoxicity, dose response, cytotoxicity control, cherry-picked samples (AID 1159577); format: functional, cell-based
[3] = target: Voltage-gated inwardly rectifying potassium channel KCNH2 (Homo sapiens, UniProt Q12809); assay: hERG protection from proarrhythmic block, potency, dose response, cell-based, thallium flux (AID 2121); format: ADME
Hexokinase = target: T1, Hexokinase (Trypanosoma brucei, UniProt Q38C41); assay: Confirmation assay for inhibitors of Trypanosoma brucei hexokinase 1-Analogue-first series. [Related pubchem assays (depositor defined):AID1430, AID1632, AID2516, AID2560, AID2579, AID2600, AID449725, AID492951]; format: functional
T1 sequence (Q38C41 whole entry): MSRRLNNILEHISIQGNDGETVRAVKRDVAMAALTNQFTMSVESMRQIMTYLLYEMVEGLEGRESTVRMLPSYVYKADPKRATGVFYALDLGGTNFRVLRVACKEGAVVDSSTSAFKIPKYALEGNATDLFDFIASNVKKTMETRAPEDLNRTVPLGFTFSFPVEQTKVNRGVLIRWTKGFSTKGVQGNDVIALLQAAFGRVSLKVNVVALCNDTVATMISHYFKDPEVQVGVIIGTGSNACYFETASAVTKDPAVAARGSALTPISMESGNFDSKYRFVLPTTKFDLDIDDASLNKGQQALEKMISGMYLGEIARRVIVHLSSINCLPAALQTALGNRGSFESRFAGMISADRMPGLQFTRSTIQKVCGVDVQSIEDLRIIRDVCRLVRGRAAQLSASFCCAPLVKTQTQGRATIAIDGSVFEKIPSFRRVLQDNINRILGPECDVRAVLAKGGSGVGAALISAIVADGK

[4] = target: G-protein coupled receptor 183 (Homo sapiens, UniProt P32249); assay: SAR confirmation of small molecule antagonists of the EBI2 receptor via a luminescent beta-arrestin assa.; format: functional
[5] = target: Sphingosine 1-phosphate receptor 2 (Homo sapiens, UniProt O95136); assay: Dose Response Cell Based Assay for Antagonists of the S1P2 Receptor. [Related pubchem assays: 856, 736 ]; format: functional
INS1 = assay: beta cell apoptosis inhibitors, cytokine rescue, dose response, luminescence, retest (AID 449756); format: functional, cell-based; conditions: Rattus norvegicus;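 note: cell death triggered by IL-1 beta plus TNF-alpha plus IFN-gamma mixture; protective hits raise ATP signal compared with cytokine alone wells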
[6] = target: T2, COUP transcription factor 2 (Homo sapiens, UniProt P24468); assay: Luminescence-based cell-based high throughput dose response assay to identify inhibitors of COUP-TFII (NR2F2).; format: functional;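 note: HEK293 cells transiently cotransfected with COUP-TFII expression vector and reporter; luciferase reporter luminescence driven by COUP-TFII from the pX2-168 reporter plasmid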
T2 sequence (P24468 whole entry): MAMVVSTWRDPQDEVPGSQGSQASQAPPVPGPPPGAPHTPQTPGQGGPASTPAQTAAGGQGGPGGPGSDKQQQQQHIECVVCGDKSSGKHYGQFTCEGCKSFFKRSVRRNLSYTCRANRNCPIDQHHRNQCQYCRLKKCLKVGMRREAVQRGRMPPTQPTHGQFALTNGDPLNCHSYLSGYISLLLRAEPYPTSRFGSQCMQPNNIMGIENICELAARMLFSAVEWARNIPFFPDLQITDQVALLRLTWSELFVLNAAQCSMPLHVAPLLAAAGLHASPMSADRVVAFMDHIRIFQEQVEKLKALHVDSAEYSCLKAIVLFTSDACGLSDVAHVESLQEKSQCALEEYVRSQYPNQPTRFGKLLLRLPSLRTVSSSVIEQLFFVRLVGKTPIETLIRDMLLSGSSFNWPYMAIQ

[7] = Luminescent dose response cell-based high throughput screening assay for inhibitors of the Janus kinase 2 mutant JAK2V617F. [Related pubchem assays: 1446 (Primary screen.), 1521 (Confirmation assay.), 1486 (Counter screen.)]; format: functional
[8] = inhibitors of intracellular T. cruzi replication, confirmation, NIH3T3 host cells, beta-gal luminescence (AID 2044); format: functional, cell-based;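 note: intracellular parasites grown in NIH/3T3 mouse fibroblasts as host cells; luminescent beta-galactosidase reporter signal from transgenic T. cruzi replicating inside host cells; inhibitors lower the luminescence signal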
[9] = cytotoxicity toward NIH3T3 fibroblasts, dose response, counter-screen, cell-based, ATP luminescence, mouse fibroblasts (AID 2010); format: functional;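 note: cells exposed to compound for about 90 hours before reading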
[10] = THP-1 cell cytotoxicity, dose response, cytotoxicity control for non-replicating M. tuberculosis project (AID 489025); format: functional
[11] = Vero E6 cell cytotoxicity, dose response, cytotoxicity control for non-replicating M. tuberculosis project, secondary assay (AID 492998); format: functional, VeroE6; conditions: Vero C1008
cells = format: functional
HEK293 [12] = assay: inhibitors of LMP1-driven NF-kB reporter, dose response, cell-based, HEK293, luciferase, cherry-pick (AID 588343); format: functional; conditions: Homo sapiens
[13] = HeLa 2N DNA content increase, dose response, cell-based, IC50 (AID 1117349); format: functional
[14] = Concentration-dependent survival of SW480 colon cancer line, luminescence detection with CellTiter-Glo, half-maximal inhibitory concentration (AID 1117338); format: functional
[15] = RKO cell viability reduction, dose response, CellTiter-Glo luminescence (AID 1117322); format: functional
[16] = cytotoxicity toward HCT116 cells – cell-based, CellTiter-Glo luminescence, IC50, dose response (AID 1117332); format: functional; conditions: HCT-116
[17] = SNU-C1 cell viability reduction, dose response, CellTiter-Glo luminescence (AID 1117323); format: functional, cell-based
[18] = cytotoxicity toward Colo320 cells – cell-based, CellTiter-Glo luminescence, IC50, dose response (AID 1117334); format: functional; conditions: COLO 320
[19] = HeLa 4N DNA content increase, dose response, cell-based, IC50 (AID 1117351); format: functional
[20] = cytotoxicity toward HT-29 cells – cell-based, CellTiter-Glo luminescence, IC50, dose response (AID 1117330); format: functional
[21] = CellTiter-Glo luminescent dose response of DLD-1 viability loss (AID 1117352); format: functional
[22] = HCT116 cell viability decrease, GSK3B pretreatment – CellTiter-Glo, IC50, dose response (AID 1117339); format: functional; conditions: HCT-116
[23] = inhibitors of firefly luciferase expression or activity, dose response, H4 neuroglioma cells, luminescence (AID 1990); format: functional, cell-based
[24] = Luminescence Cell-Based Dose Response HTS to Identify Inhibitors of 5'UTR Stem-Loop Driven Prion Protein mRNA Translation in H4 Neuroglioblastoma Cells. [Related pubchem assays: 1827 (Project Summary), 1813 (Primary HTS)]; format: functional
[25] = inhibitors of SNCA 5'UTR-driven reporter translation, confirmation, H4 neuroglioma cells, luminescence (AID 1988); format: functional, cell-based
[26] = inhibitors of Vif binding to APOBEC3G peptide, primary screen, biochemical, TR-FRET, GST-Vif 1-94, biotin-A3G peptide, dose response retest (AID 1117319); format: functional;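 note: TR-FRET signal of purified GST-Vif binding a biotinylated A3G peptide; inhibitors lower the FRET signal by blocking Vif and A3G binding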
[27] = Vero cell cytotoxicity, dose response, cytotoxicity control for Vif-APOBEC3G degradation inhibitor project, Vero cells (AID 1117358); format: functional; conditions: Human immunodeficiency virus 1, Vero
HEK293 [28] = assay: cells; conditions: Homo sapiens
HEK293 [29] = assay: cells; conditions: Homo sapiens; remark: listed apart in the source
[30] = P. falciparum Dd2 growth inhibitors, dose response, SYBR Green, dry powder samples, set 9 (AID 1159568); format: functional, cell-based
[31] = target: T3, Low molecular weight phosphotyrosine protein phosphatase (Homo sapiens, UniProt P24666); assay: LMPTP phosphatase inhibitors, dose response, biochemical, OMFP substrate, fluorescence intensity, set 2 (AID 743307); format: functional
T3 sequence (P24666 whole entry): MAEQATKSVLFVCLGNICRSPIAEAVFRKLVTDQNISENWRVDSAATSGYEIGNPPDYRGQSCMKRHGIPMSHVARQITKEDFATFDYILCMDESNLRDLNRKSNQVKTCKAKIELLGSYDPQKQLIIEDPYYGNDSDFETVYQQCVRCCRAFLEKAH

[32] = target: T3, Low molecular weight phosphotyrosine protein phosphatase; assay: LMPTP phosphatase inhibitors, colorimetric pNPP readout, dose response, orthogonal assay, biochemical, absorbance, pNPP substrate, LMPTP-A isoform, set 2 (AID 743308); format: functional
[33] = P. falciparum late gametocyte killing, dose response, luminescence (AID 1117278); format: functional, cell-based;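 note: gametocytes exposed to compound for 24 hours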
[34] = Jurkat T cell cytotoxicity, dose response, cytotoxicity control for P. falciparum gametocyte viability project, luminescence (AID 1117277); format: functional, cell-based;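 note: potency reflects loss of cellular ATP meaning fewer viable cells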
Leucine aminopeptidase = target: T4, Leucine aminopeptidase (Plasmodium falciparum 3D7, UniProt Q8IL11); assay: P. falciparum M17LAP inhibitors, primary screen, biochemical, fluorogenic H-Leu-NHMec substrate, 1536-well (AID 1619); format: functional
T4 sequence (Q8IL11 whole entry): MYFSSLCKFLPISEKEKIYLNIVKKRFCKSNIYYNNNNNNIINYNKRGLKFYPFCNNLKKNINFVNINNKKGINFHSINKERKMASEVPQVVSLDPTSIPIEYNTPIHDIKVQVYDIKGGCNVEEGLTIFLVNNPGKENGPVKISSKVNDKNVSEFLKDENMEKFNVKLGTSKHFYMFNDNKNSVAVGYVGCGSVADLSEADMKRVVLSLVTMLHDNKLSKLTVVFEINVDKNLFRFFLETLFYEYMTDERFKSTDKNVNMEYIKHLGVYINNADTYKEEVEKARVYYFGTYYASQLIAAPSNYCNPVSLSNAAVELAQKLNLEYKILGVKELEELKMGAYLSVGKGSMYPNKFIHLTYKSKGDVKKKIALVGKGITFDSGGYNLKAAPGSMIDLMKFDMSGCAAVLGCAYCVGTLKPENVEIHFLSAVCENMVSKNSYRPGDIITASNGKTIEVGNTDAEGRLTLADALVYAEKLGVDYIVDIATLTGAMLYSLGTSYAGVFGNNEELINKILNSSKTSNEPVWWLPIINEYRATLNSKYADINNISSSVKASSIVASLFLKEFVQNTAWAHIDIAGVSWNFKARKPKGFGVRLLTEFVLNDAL

[35] = target: Ubiquitin carboxyl-terminal hydrolase BAP1 (Homo sapiens, UniProt Q92560); assay: BAP1 deubiquitinase inhibitors, dose response, biochemical (AID 714); format: functional
Estrogen receptor = Estrogen receptor (Homo sapiens, UniProt P03372);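 note: potency for inhibiting coactivator peptide recruitment to the receptor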
Estrogen receptor beta = Estrogen receptor beta (Homo sapiens, UniProt Q92731); assay: ERβ–SRC-3 coactivator interaction inhibitors, confirmation, orthogonal assay, biochemical, ELISA, streptavidin-HRP readout (AID 1060)
[36] = target: T5, Carboxy-terminal domain RNA polymerase II polypeptide A small phosphatase 1 (Homo sapiens, UniProt Q9GZU7); assay: inhibitors of CTDSP1, concentration-response testing, biochemical assay, absorbance-based, actives from ultra-high-throughput screening (AID 540297); format: functional
T5 sequence (Q9GZU7 whole entry): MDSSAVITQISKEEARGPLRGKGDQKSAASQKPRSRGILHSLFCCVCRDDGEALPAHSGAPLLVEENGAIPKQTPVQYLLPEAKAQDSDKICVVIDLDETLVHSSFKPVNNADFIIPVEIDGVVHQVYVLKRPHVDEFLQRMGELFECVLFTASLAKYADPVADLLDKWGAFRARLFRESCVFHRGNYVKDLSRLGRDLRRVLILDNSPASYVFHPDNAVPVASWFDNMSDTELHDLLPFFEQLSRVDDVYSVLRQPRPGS

[37] = target: Mitogen-activated protein kinase 10 (Homo sapiens, UniProt P53779); assay: Dose response biochemical screening assay for inhibitors of c-Jun N-Terminal Kinase 3 (JNK3). [Related pubchem assays: 746 ]
Sequence of Mitogen-activated protein kinase 10 (P53779 whole entry): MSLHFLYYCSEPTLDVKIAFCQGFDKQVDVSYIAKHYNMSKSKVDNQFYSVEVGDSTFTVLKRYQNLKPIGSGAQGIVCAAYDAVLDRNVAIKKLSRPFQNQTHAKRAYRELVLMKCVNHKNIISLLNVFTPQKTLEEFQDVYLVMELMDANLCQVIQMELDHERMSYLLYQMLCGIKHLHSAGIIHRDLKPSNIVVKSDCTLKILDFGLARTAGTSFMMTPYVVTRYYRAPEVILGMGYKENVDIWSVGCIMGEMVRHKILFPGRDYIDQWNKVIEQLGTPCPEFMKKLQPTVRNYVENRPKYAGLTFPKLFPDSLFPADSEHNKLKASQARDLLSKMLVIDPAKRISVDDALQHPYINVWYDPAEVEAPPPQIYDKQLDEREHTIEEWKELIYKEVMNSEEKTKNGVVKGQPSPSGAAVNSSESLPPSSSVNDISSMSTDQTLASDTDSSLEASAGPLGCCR

Sequence of Ubiquitin carboxyl-terminal hydrolase BAP1 (Q92560 whole entry): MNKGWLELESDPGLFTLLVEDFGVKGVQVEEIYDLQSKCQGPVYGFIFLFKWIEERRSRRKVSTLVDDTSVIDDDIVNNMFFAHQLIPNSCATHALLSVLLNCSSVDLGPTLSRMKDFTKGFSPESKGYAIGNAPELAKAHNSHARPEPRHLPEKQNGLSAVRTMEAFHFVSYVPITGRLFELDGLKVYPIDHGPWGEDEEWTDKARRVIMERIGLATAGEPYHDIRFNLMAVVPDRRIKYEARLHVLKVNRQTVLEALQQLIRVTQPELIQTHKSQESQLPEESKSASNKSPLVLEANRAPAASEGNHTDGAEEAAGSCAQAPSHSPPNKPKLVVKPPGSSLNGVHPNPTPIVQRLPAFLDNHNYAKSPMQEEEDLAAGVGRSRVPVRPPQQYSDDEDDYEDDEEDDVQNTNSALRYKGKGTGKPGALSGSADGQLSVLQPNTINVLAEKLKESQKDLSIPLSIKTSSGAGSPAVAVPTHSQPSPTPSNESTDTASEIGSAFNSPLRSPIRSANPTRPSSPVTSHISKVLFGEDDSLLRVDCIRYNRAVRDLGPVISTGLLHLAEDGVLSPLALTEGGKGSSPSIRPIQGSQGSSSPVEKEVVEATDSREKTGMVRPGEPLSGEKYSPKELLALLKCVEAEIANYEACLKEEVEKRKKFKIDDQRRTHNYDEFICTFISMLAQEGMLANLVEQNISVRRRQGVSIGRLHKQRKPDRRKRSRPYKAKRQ
Sequence of Voltage-gated inwardly rectifying potassium channel KCNH2 (Q12809 whole entry): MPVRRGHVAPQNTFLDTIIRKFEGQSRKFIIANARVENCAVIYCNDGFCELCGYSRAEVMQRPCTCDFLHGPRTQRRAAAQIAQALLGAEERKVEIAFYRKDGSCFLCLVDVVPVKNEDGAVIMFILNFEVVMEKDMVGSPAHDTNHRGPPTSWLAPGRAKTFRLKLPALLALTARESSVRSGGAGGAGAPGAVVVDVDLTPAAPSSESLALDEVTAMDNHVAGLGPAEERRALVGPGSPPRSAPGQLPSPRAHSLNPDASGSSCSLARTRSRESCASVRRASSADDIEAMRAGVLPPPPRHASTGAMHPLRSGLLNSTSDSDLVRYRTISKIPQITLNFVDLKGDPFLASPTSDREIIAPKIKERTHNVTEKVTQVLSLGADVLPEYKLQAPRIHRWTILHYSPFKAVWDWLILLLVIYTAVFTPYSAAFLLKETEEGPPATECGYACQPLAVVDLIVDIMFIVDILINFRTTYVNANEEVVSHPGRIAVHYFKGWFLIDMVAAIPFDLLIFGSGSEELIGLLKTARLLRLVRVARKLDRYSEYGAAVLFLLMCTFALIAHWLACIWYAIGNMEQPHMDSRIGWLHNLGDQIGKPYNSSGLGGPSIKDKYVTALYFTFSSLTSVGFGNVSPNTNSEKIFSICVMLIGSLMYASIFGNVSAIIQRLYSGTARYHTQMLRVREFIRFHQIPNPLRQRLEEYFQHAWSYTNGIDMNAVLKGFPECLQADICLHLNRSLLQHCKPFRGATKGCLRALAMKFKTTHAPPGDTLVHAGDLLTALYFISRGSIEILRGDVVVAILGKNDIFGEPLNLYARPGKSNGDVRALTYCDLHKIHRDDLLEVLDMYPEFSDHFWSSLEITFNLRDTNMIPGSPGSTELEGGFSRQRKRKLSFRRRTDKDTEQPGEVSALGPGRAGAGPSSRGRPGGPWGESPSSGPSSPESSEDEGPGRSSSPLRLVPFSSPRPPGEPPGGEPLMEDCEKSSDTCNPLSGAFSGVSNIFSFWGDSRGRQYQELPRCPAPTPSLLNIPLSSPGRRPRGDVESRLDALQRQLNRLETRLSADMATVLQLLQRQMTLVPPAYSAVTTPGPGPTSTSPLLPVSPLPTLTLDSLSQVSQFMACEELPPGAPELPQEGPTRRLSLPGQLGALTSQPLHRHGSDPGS
Sequence of Sphingosine 1-phosphate receptor 2 (O95136 whole entry): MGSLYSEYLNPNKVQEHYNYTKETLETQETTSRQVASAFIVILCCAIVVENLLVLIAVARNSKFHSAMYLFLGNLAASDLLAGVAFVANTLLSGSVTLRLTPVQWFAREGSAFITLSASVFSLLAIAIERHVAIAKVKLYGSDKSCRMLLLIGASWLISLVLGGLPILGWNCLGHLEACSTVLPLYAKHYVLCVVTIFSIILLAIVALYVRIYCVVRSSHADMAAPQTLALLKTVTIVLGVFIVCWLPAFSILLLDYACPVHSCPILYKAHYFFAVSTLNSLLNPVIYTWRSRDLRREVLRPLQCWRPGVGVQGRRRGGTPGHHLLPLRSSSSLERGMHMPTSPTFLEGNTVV
Sequence of Estrogen receptor (P03372 whole entry): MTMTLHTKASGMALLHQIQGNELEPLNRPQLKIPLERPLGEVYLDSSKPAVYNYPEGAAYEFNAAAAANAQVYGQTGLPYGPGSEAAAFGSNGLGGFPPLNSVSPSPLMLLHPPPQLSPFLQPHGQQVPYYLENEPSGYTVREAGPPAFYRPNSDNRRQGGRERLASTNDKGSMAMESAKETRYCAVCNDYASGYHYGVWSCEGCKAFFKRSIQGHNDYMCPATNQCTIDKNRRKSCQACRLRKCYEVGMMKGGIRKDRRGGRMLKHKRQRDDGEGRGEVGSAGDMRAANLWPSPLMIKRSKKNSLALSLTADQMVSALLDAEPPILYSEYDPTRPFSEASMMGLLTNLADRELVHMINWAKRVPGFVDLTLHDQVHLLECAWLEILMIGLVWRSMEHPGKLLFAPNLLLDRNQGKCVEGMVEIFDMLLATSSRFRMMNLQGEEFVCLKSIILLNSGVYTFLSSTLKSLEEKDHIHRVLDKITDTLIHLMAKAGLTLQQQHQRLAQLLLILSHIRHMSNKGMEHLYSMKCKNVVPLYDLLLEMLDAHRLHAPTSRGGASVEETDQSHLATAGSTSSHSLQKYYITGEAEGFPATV
Sequence of Estrogen receptor beta (Q92731 whole entry, the tested form may be a part): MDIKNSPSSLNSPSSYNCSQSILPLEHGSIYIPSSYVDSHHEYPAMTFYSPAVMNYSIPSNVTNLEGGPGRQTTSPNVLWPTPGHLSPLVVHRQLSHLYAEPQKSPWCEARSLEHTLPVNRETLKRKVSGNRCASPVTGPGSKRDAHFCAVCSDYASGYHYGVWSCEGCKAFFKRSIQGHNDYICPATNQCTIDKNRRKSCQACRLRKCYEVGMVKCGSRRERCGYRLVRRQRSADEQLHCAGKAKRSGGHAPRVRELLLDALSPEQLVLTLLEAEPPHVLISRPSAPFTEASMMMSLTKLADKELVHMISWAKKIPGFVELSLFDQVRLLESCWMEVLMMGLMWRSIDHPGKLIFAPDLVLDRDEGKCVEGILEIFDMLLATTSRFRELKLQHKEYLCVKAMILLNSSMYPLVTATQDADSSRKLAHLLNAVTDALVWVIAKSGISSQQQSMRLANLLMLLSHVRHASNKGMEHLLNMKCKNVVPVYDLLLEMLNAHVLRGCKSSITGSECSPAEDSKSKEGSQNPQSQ
Sequence of G-protein coupled receptor 183 (P32249 whole entry): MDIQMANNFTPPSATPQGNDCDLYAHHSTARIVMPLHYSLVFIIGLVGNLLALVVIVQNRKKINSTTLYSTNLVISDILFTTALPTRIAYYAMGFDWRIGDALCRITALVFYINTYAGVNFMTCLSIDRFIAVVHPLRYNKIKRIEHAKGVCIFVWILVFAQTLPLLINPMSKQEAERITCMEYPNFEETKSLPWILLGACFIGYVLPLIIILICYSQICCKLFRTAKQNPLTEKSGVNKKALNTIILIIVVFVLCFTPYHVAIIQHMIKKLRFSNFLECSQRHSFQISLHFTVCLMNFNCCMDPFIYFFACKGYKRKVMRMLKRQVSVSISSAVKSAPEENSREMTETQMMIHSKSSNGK

Cc1ccccc1S(=O)(=O)N1CC(=O)N2[C@H](C1)[C@@H](c1ccc(C#CCC3CCCC3)cc1)[C@@H]2CO
AC50 [1]: 3.64 µM (active) | AC50 [2]: > 42 µM (inactive)

COc1ccc(C(=O)Nc2ccccc2C(=O)O)cc1Cl
EC50 [3]: 13 µM (active) | IC50 (Hexokinase): > 25 µM (inactive)

Cc1ccc(S(=O)(=O)N2CCN(C(=O)/C=C/c3ccc(F)cc3)CC2)cc1
IC50 [4]: 0.00767 µM (active)

CCOC(=O)N1CCN(C(=O)CSCC(=O)Nc2nc(-c3ccc(-c4ccccc4)cc3)cs2)CC1
IC50 [5]: 2.47 µM (active) | AC50 (INS1): 4.63 µM (active) | IC50 [6]: 5.66 µM (active)

COc1ccccc1-c1nnc(Sc2nc([N+](=O)[O-])nn2C)o1
IC50 [7]: 1.52 µM (active) | EC50 [8]: 0.556 µM (active) | EC50 [9]: 17.5 µM (active) | CC50 [10]: 13.6 µM (active) | CC50 [11]: 17.5 µM (active) | IC50 (cells): 1.95 µM (active) | AC50 (HEK293 [12]): 4.37 µM (active)

Cc1c(C)c2c(c(C)c1O)CCC(C)(COc1ccc(CC3SC(=O)NC3=O)cc1)O2 (stereo not drawn) [TROGLITAZONE]
IC50 [13]: > 10 µM (inactive) | IC50 [14]: 5.59 µM (inactive) | IC50 [15]: 7.76 µM (inactive) | IC50 [16]: 1.4 µM (active) | IC50 [17]: > 20 µM (inactive) | IC50 [18]: 9.49 µM (inactive) | IC50 [19]: > 10 µM (inactive) | IC50 [20]: > 20 µM (inactive) | IC50 [21]: 12.3 µM (inactive) | IC50 [22]: 1.3 µM (active)

CC(C)c1nc2sc3c(NCc4ccco4)ncnc3c2c2c1COC(C)(C)C2
EC50 [23]: 19.2 µM (active) | EC50 [24]: > 120 µM (not active) | EC50 [25]: > 120 µM (not active) | IC50 [26]: > 50 µM (active) | CC50 [27]: > 40 µM (active) | EC50 (HEK293 [28]): > 59.6 µM (inactive) | EC50 (HEK293 [29]): > 59.6 µM (inactive)

COc1ccc2c3c(n(C)c2c1)[C@@H](CO)N(Cc1ccc2c(c1)OCO2)CC31CN(C(=O)c2ccc3c(c2)OCO3)C1
AC50 [30]: 1.21 µM (active)

c1ccc2c(NCCCN3CCCCC3)cc(-c3ccncc3)nc2c1
IC50 [31]: 2.48 µM (active) | IC50 [32]: 6.49 µM (active)

CC(=O)c1c(C)[nH]c(C(=O)COC(=O)C2CC2)c1C
IC50 [33]: > 109 µM (inactive) | IC50 [34]: > 83.2 µM (inactive)

CCOC(=O)c1ccc(NC(=O)CSc2nc(C)cc(=O)[nH]2)cc1
IC50 (Leucine aminopeptidase): 11.8 µM (active) | IC50 [35]: 23.3 µM (active) | IC50 (Estrogen receptor): 3.06 µM (active) | IC50 (Estrogen receptor beta): < 0.023 µM (not active) | IC50 [36]: 2.67 µM (active)

COc1ccc(C2C(C#N)=C(N)SC(N)=C2C#N)cc1OC
IC50 [37]: > 31 µM (not active)
